Reference: patent US11364242B2, “Treatment agents for inhibiting HIV and cancer in HIV infected patients” (UNIVERSITY OF MARYLAND, BALTIMORE, priority 2015, dated 2022)

Key:
[1] = test system: full-length unspliced HIV mRNA; test: RT-PCR of unspliced HIV mRNA in U1 cells; format: cell-based; details: 10 nM PMA, 2 days
Procedure: FIG. 6 is a bar graph that depicts how INK128 inhibits HIV transcription in U1 cells. U1 cells were cultured in the presence of 10 nM PMA and the indicated concentrations of INK128. After 2 days, cells were collected, mRNA isolated, quantified, reverse transcribed and amplified by real time PCR using unspliced HIV cDNA primer pair US.1a/US.2a and housekeeping [beta]-actin primers. For quantification, standard curves for unspliced HIV cDNA and [beta]-actin sequences were generated by performing 10-fold serial dilutions of mRNA isolated from PBLs acutely infected with HIV BaL. PCR amplification was performed using Quantitect® SYBR Green PCR Kit in a LightCycler®. Negative controls consisted of mixture reactions without the reverse transcription step according to an embodiment.
Total cellular RNA was isolated using the Qiagen™ RNA Isolation Kit (Qiagen™) RNA was then treated with DNase I, Amplification Grade (Invitrogen™), and reverse transcribed with SuperScript III First-Strand Synthesis Supermix™ (Invitrogen™) using hexamer primers. An aliquot of the cDNA was used as a template for PCR amplification of full length, unspliced HIV cDNA using primers US.1a and US.2a, and another aliquot for amplification with primer pairs specific for housekeeping [beta]-actin sequences (63).
The effects of INK128 on activation of HIV in the chronically HIV-infected U1 cell line were examined. […]

HIV BaL = HIV BaL infection of NSG mice reconstituted with human PBLs

## CC(C)n1nc(-c2ccc3oc(N)nc3c2)c2c(N)ncnc21 [INK128, 5-(4-amino-1-propan-2-ylpyrazolo[3,4-d]pyrimidin-3-yl)-1,3-benzoxazol-2-amine]
[1]
  synthesis of full-length unspliced HIV mRNA: inhibits synthesis
HIV BaL; day 14, 1 mg/kg/day i.p.
  mean CD4/CD8 cell ratio: 0.11
HIV BaL; day 14, 3 mg/kg/day i.p.
  mean CD4/CD8 cell ratio: 0.18
HIV BaL; day 14, 5 mg/kg/day i.p.
  mean CD4/CD8 cell ratio: 0.76
